Measurements as given in patent publication US20250144069A1, “BILOBALIDE DERIVATIVE COMPOUNDS FOR TREATING NEUROLOGICAL DISEASES AND CANCERS” (The Chinese University of Hong Kong, priority 2023, published 2025).
Like-named read-outs stand apart in the source and are kept apart here.

Key:
[1] = test system: HMC3 microglial cell line; assay: RSL3-induced ferroptosis model, cell viability (CCK-8); format: cell-based
HMC3 cells [2] = assay: Intracellular ROS level by CellROX (fluorescent imaging and flow cytometry); format: cell-based; settings: HMC3, 50 nM RSL3 2 h, then 50 μM compound 3 h
Description: (§1) For flow cytometry, HMC3 cells (seeded 50,000 cells per well on 24-well plate one day prior to the experiment) were pretreated with 50 nM RSL3 for 2 h. […] After which medium was replaced with BODIPY™ 581/591C11 (10 μM, Invitrogen) or CellROX™ Green (5 μM, Invitrogen) for 30 min staining. Cells were then washed 3 times with PBS and collected. Fluorescence was measured by BD FACSympgony A5.2 SORP Flow Cell Analyzer (BD Biosciences).
For fluorescent imaging, 10,000 cells per well of HMC3 were laid on cover slip and incubated overnight. After the same compound treatment as described above in this section, cells were subsequently incubated with CellROX™ Green and Hoechst 34580 (MCE) for 30 min. After incubation, cells were washed 3 times gently with PBS. Cover slips were then attached to glass slides by Anti-Fade Fluorescence Mounting Medium (Abcam) and imaged via ECLIPSE Ti fluorescence microscope (Nikon). Fluorescent intensity was quantified using imageJ software.
To further evaluate the anti-ferroptotic properties of bilobalide analogues, we tested its effect on the total level of intracellular reactive oxygen species (ROS), we performed fluorescent staining on the HMC3 cell line using CellROX, which is a probe which can emit green fluorescence after reacting with ROS. […]

HMC3 cells [3] = assay: Lipid peroxidation level by flow cytometry using C11-BODIPY; format: cell-based
Description: as §1
Disequilibrium ROS level acts as a direct initiator of lipid peroxidation, which is one of the major hallmarks of ferroptosis. In this example, HMC3 cells according to the conditions in Table 4 were subjected to measurement of lipid peroxidation level using flow cytometry and the lipid peroxidation sensor C11-BODIPY.
For flow cytometry, HMC3 cells (seeded 50,000 cells per well on 24-well plate one day prior to the experiment) were pretreated with 50 nM RSL3 for 2 h. After RSL3 treatment, medium was replaced by DMSO (0.1%) only, SXQ087-1 (10, 5 and 2.5 μM), following by 3 h treatment. After which medium was replaced with BODIPY™ 581/591C11 (10 μM, Invitrogen) for 30 min staining. Cells were then washed 3 times with PBS and collected. Fluorescence was measured by BD FACSympgony A5.2 SORP Flow Cell Analyzer (BD Biosciences).
Lipid peroxidation is one of the major hallmarks of ferroptosis. In this example, HMC3 cells according to the conditions in Table 5 were subjected to measurement of lipid peroxidation level using flow cytometry and the lipid peroxidation sensor C11-BODIPY.

HMC3 cells [4] = assay: Cytotoxicity, cell viability of HMC3 cells; format: cell-based; settings: 24 h treatment
Excerpt: Now referring to FIG. 11A, a chart showing the cell viability (%) of HMC3 cells treated with SXQ087-1, XBB-037 or bilobalide.

[5] = Hydrolytic stability in buffer monitored by LC-MS/MS
[6] = test system: HT22 mouse hippocampal cell line; assay: RSL3-induced ferroptosis model, cell viability (CCK-8)
Description: In this example, the anti-ferroptotic properties of the BB analogues described in preceding examples were evaluated by a RSL3-induced ferroptosis model. […] To evaluate the anti-ferroptosis activity of BB analogues, we developed a phenotypic screening based on RSL3-induced ferroptosis model on HT22 mouse hippocampal cell line, HMC3 microglial cell line and BV-2 murine microglial cell line which were co-treated or pre-treated with RSL3 and BB analogues for 2-24 h, and the cell viability was subsequently measured.
HMC3 cell line was maintained in Minimum Essential Medium (MEM, Gibco) supplemented with 1× non-essential amino acid (Gibco), 1 mM sodium pyruvate (Gibco), 10% fetal bovine serum (FBS) (Gibco) and 1% penicillin/streptomycin (Gibco). BV-2 cell line was maintained in Roswell Park Memorial Institute (RPMI) 1640 medium (Gibco) supplemented with 10% FBS and 1% penicillin/streptomycin, and HT22 cell line was maintained in Dulbecco's Modified Eagle's Medium (DMEM) (Gibco) supplemented with 10% FBS and 1% penicillin/streptomycin. All cells were incubated at 37° C. in a humidified atmosphere under 5% CO2.
For phenotypic screening of bilobalide (BB) analogues, 5,000 cells per well (100 uL volume) of HT22, HMC3 or BV-2 cells were placed in 96-well plate and allowed to adhere for 22 h. After which, cells were pre-treated with 200 nM (on HT22, HMC3) or 500 nM (on BV-2) of RSL3 (Bidepharm) for 2 h respectively. Medium was then replaced by 50 μM BB analogues and followed by 22 h incubation subsequently. Cell viability was measured using cell counting kit-8 (CCK-8) (MCE). For dose-response of BB analogues, RSL3, HT22 and HMC3 cells (seeded on 96-well plates at 5,000 cells per well) were treated with multiple doses of RSL3 for 2 h. […] Cell viability was measured after 22 h treatment by CCK-8. […] Cell viability was measured by CCK-8 using CLARIOstar monochromator multimode plate reader under 450 nm wavelength.
In this example, the cells were pre-treated with RSL3 (200 nM for HT22 and HMC3, 500 nM for BV-2) for two hours, followed by bilobalide analogues treatment (50 PM) for 22 hours. Cell viability was measured using cell counting kit-8 (CCK-8); n=5 technical replicates. […] Such effect was further investigated by treating the cell lines with various doses of RSL3.

HMC3 cells [7] = format: cell-based
GPX4 = GPX4 protein level by Western-blot; format: cell-based; settings: HMC3, co-treated with RSL3 1 μM and compound 10, 5, 2.5 μM, 3 h
Excerpt: As mentioned above, RSL3 treatment results in an oxidized environment in cells, which promotes the CMA to scavenge damaged proteins including GPX4 or glyceraldehyde-3-phosphate dehydrogenase (GAPDH), a well-known CMA substrate. To gain insights into the mechanism of action of bilobalide analogue XBB-037 against the RSL3-induced ferroptosis, HMC3 cells were pre-treated with RSL3, followed by treatment with or without bilobalide analogue XBB-037.
In FIN56 assay, HMC3 (300,000 cells per well on 6-well plate) was pre-treated with FIN56 (2.5, 1.25, 0.625 μM) for 2 h, followed by 8 h treatment of DMSO only (0.1%) or XBB-037 (50 μM). In RSL3 assay, HMC3 (300,000 cells per well on 6-well plate) was pre-treated with RSL3 (750, 500, 250 nM) for 2 h, followed by 4 h or 8 h treatment of DMSO only (0.1%) or XBB-037 (50 μM). […] Antibodies for GPX4 (52455, CST) was used at 1:500 dilution, β-Actin (AC026, ABclonal) was used at 1:400,000 dilution, GAPDH (AC035, ABclonal) was used at 1:3000 dilution. […] Band intensity was normalized by image lab software.
Now referring to FIGS. 7E-7F, GPX4 levels in HMC3 cells pre-treated with RSL3 are shown. Protein levels of GPX4 and […] at 0, 250, 500 or 750 nM RSL3 were measured by Western-blot. HMC3 cells were pretreated with RSL3 for 2 hours and then treated with or without 50 μM bilobalide analogue XBB-037 for 4 hours.
In addition to […], FIN56 was further used to investigate the GPX4 regulation of bilobalide analogue XBB-037. As mentioned above, FIN56 is a Class III ferroptosis inducer, which causes the depletion of cellular GPX4 levels without affecting GPX4 activity. In this experiment, HMC3 cells were pretreated with FIN56 for 2 hours and then treated with or without 50 μM XBB-037 for 8 hours. Protein levels were measured by Western-blotting using indicated antibodies. Data were plotted as mean±s.d., n=3 technical replicates. **p<0.01. Statistical analyses were performed by two-way ANOVA with multiple comparisons using Two-stage linear step-up procedure of Benjamini, Krieger and Yekutieli multiple comparisons test. […]

LC3-II/LC3-I = settings: HMC3, co-treated with RSL3 1 μM and compound 10, 5, 2.5 μM, 3 h
Description: After incubation, cells were washed 3 times with ice-cold PBS and lysed in RIPA buffer containing 1× protease inhibitor cocktail (MCE) and nuclease (Biyotime) on ice for 30 min. All samples were centrifuged and then quantified by bicinchoninic acid (BCA) assay (Pierce). Cell lysates were diluted with Laemmli Sample Buffer (Bio-Rad) and heated at 95° C. for 5 min. Samples were separated by 12% SDS-PAGE and transferred to a polyvinylidene difluoride membrane. Membrane was incubated with 3% bovine serum albumin (BSA, Sigma-Aldrich) for 1 h, and subsequently incubated with indicated primary antibody overnight at 4° C. After incubation, membrane was washed by wash buffer (containing 20 mM Tris, 150 mM NaCl and 0.1% Tween 20), and incubated with peroxidase-conjugated secondary antibody at room temperature for 1 h. Antibodies for GPX4 (52455, Cell Signaling Technology) was used at 1:500 dilution, GAPDH (sc-32233, Santacruz) was used at 1:3000 dilution, LC3B (A19665, ABclonal) was used at 1:1000 dilution. Goat anti-rabbit IgG HRP-linked antibody (7074, CST) was used at 1:2500 dilution, goat anti-mouse IgG (H+L) secondary antibody DyLight™ 488 (35502, Invitrogen) was used at 1:5000 dilution. Blot was washed and visualized using Clarity Western ECL Substrate (Bio-Rad) with ChemiDoc MP Imaging System (Bio-Rad). Band intensity was normalized by image J software.

[8] = cell free
[9] = test system: BV-2 murine microglial cell line; assay: RSL3-induced ferroptosis model, cell viability (CCK-8)
Description: In this example, the anti-ferroptotic properties of the BB analogues described in preceding examples were evaluated by a RSL3-induced ferroptosis model. […] To evaluate the anti-ferroptosis activity of BB analogues, we developed a phenotypic screening based on RSL3-induced ferroptosis model on HT22 mouse hippocampal cell line, HMC3 microglial cell line and BV-2 murine microglial cell line which were co-treated or pre-treated with RSL3 and BB analogues for 2-24 h, and the cell viability was subsequently measured. […]
For phenotypic screening of bilobalide (BB) analogues, 5,000 cells per well (100 uL volume) of HT22, HMC3 or BV-2 cells were placed in 96-well plate and allowed to adhere for 22 h. […] Cell viability was measured using cell counting kit-8 (CCK-8) (MCE). […] Cell viability was measured after 22 h treatment by CCK-8. […] Cell viability was measured by CCK-8 using CLARIOstar monochromator multimode plate reader under 450 nm wavelength.
In this example, the cells were pre-treated with RSL3 (200 nM for HT22 and HMC3, 500 nM for BV-2) for two hours, followed by bilobalide analogues treatment (50 PM) for 22 hours. Cell viability was measured using cell counting kit-8 (CCK-8); n=5 technical replicates. […]

Row | SMILES | shift of RSL3 dose-dependent viability curve ([1]; HMC3, multiple doses of RSL3, 50 μM compound) | intracellular ROS level (CellROX fluorescent staining) (HMC3 cells [2]) | lipid peroxidation level (C11-BODIPY) (HMC3 cells [3]; HMC3, 50 nM RSL3 2 h, then 50, 25 and 12.5 μM compound 3 h) | cytotoxicity (cell viability) (HMC3 cells [4]) | concentration remaining (hydrolytic stability) ([5]; buffer pH 6.8, after 20 hours) | concentration remaining (hydrolytic stability) ([5]; buffer pH 7.4, within the first 10 hours) | shift of RSL3 dose-dependent viability curve ([6]; HT22, multiple doses of RSL3, 50 μM compound) | inhibition of RSL3-induced ferroptosis (phenotypic screening, cell viability) [1] | lipid peroxidation level (C11-BODIPY) (HMC3 cells [3]) | protection against FIN56-induced cell death (cell viability) (HMC3 cells [7]) | protection against ML162 lethality (cell viability) (HMC3 cells [7]) | protection against ML210 lethality (cell viability) (HMC3 cells [7]) | protection against erastin-induced lethality (cell viability) (HMC3 cells [7]) | GPX4 level after RSL3 (GPX4) | LC3-II/LC3-I ratio after RSL3 (LC3-II/LC3-I) | radical scavenging activity (relative radical level) [8] | inhibition of RSL3-induced ferroptosis (phenotypic screening, cell viability) [6] | inhibition of RSL3-induced ferroptosis (phenotypic screening, cell viability) [9]
1 | CC(C)(C)[C@]1(O)C[C@@H]2OC(=O)C[C@@]23C(=O)O[C@@H]2OC(=O)[C@H](O)[C@]213 [bilobalide] | relatively marginal | no reduction in ROS level | no significant alteration | no significant cytotoxicity | below 20% | below 20% | relatively marginal |  |  |  |  |  |  |  |  |  |  | 
2 | CC(C)(C)[C@]1(O)C[C@@H]2OC(=O)C[C@@]23C(=O)O[C@@H]2N(CCc4ccc(O)c(O)c4)C(=O)[C@H](OC(=O)c4ccccc4)[C@]213 [SXQ087-1] |  |  |  | no significant cytotoxicity |  |  |  | effectively inhibit ferroptosis | significant down-regulation of RSL3-induced lipid peroxidation accumulation in a dose-dependent manner | effectively suppressed FIN56-induced cell death | alleviated the lethality of ML162 | alleviated the lethality of ML210 | suppressed erastin-induced lethality | RSL3-induced GPX4 degradation was reduced | increasing LC3-II/LC3-I ratio was also reduced | significant dose-dependent radical scavenging activity | effectively inhibit ferroptosis | effectively inhibit ferroptosis
